Test results as given in patent US20260078130A1, “NAMPT MODULATORS, PREPARATIONS, AND USES THEREOF” (SIRONAX LTD., priority 2022, published 2026).
Where two headings read alike, the source gives them in different places.

Tests used:
[1] = target: T1, human enzyme NAMPT (full length) (Homo sapiens, UniProt P43490); assay: NMN fluorescence biochemical assay (stimulation of NMN synthesis by NAMPT); conditions: for EC50: concentration giving half-maximal activation, read-out: Enzymatic EC50; for Enzymatic Emax: fold change of maximal activation compared to DMSO
T1 construct: human enzyme NAMPT (full length)
T1 sequence (P43490 whole entry): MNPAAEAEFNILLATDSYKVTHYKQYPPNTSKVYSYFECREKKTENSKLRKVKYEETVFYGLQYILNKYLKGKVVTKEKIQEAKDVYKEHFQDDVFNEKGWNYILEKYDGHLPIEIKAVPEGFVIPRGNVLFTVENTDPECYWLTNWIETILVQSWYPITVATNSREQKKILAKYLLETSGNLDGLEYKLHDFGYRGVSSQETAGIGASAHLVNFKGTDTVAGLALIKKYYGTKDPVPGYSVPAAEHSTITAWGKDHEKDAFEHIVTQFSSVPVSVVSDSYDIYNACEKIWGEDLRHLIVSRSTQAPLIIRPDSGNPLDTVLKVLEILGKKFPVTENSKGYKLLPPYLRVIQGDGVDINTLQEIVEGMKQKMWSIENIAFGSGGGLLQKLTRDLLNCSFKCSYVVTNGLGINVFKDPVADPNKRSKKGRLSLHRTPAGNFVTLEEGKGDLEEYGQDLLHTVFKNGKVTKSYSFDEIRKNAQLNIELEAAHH
Procedure, shortened: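 Full-length human NAMPT (100 nM) was preincubated 15 min at 37 °C with compound in 50 mM Tris-HCl pH 7.5, 10 mM MgCl2, 2 mM DTT, then reacted 1 h at 37 °C with 50 μM NAM, 100 μM PRPP, 4 mM ATP (stated solution concentrations). NMN was derivatised with acetophenone/KOH then formic acid and read at Ex/Em 382/445 nm; EC50 and Emax (fold over DMSO) reported.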

[2] = tested on: endogenous NAMPT in U2OS cells; assay: Cellular NAD+ modulation assay (NAD/NADH-Glo, U2OS cells); format: cell-based; conditions: Homo sapiens; for maximal fold induction: read-out: Cellular Emax
Procedure, shortened: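 NAD/NADH-Glo luminescence quantified NAD+ after acid treatment (60 °C, 15 min) and neutralization of DTAB lysates. Beforehand, U2OS cells seeded 16 h earlier received compound concentration series for 24 h at 37 °C. Values given as half-maximal activation concentration (EC50) and maximal fold change versus DMSO (Emax).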

[3] = NMN fluorescence assay, purified human NAMPT 100 nM
[4] = 24 hours incubation, cellular NAD+
[5] = NMN synthesis by purified human NAMPT (100 nM)
[6] = 24 hours incubation with compound

EC50 [1, 3]	Enzymatic Emax [1]	EC50 [2, 4]	EC50 [1, 5]	EC50 [2, 6]	Compound	maximal fold induction [2, 4]	maximal fold induction [2, 6]
0.5 to 5 µM	B (3≥B>2)	0.5 to 5 µM	–	–	Cn1cnc(Cl)c1CC1c2ccccc2C(=O)N1CC1CC2(CNC(=O)O2)C1 (centres unmarked) [Compound 468, 2-((1-((4-chloro-1-methyl-1H-imidazol-5-yl)methyl)-3-oxoisoindolin-2-yl)methyl)-5-oxa-7-azaspiro[3.4]octan-6-one]	> 1.5	–
0.5 to 5 µM	B (3≥B>2)	< 0.5 µM	–	–	O=C1NCC2(CC(CN3C(=O)c4ccccc4C3Cc3nnn(C4CC4)c3Cl)C2)O1 (centres unmarked) [Compound 471, 2-((1-((5-chloro-1-cyclopropyl-1H-1,2,3-triazol-4-yl)methyl)-3-oxoisoindolin-2-yl)methyl)-5-oxa-7-azaspiro[3.4]octan-6-one]	> 1.5	–
–	A (A>3)	–	< 0.5 µM	< 0.5 µM	Cn1cc(Cl)c(CC2c3ccccc3C(=O)N2Cc2ccc3[nH]c(=O)oc3c2)n1 (centres unmarked) [Compound 232, 6-((1-((4-chloro-1-methyl-1H-pyrazol-3-yl)methyl)-3-oxoisoindolin-2-yl)methyl)benzo[d]oxazol-2(3H)-one]	–	> 1.5
< 0.5 µM	A (A>3)	0.5 to 5 µM	–	–	O=C1c2ccccc2C(Cc2nc(Br)sc2Cl)N1Cc1ccc2[nH]nnc2c1 (centres unmarked) [Compound 448, 2-((1H-benzo[d][1,2,3]triazol-5-yl)methyl)-3-((2-bromo-5-chlorothiazol-4-yl)methyl)isoindolin-1-one]	> 1.5	–
< 0.5 µM	B (3≥B>2)	0.5 to 5 µM	–	–	O=C1c2ccccc2C(Cc2n[nH]cc2Cl)N1Cc1ccc2[nH]nnc2c1 (centres unmarked) [Compound 388, 2-((1H-benzo[d][1,2,3]triazol-5-yl)methyl)-3-((4-chloro-1H-pyrazol-3-yl)methyl)isoindolin-1-one]	> 1.5	–
< 0.5 µM	B (3≥B>2)	< 0.5 µM	–	–	Cc1c(CC2c3ccccc3C(=O)N2Cc2ccc3[nH]nnc3c2)c(C#N)nn1C (centres unmarked) [Compound 393, 4-((2-((1H-benzo[d][1,2,3]triazol-5-yl)methyl)-3-oxoisoindolin-1-yl)methyl)-1,5-dimethyl-1H-pyrazole-3-carbonitrile]	> 1.5	–
≥ 5 µM	A (A>3)	0.5 to 5 µM	–	–	Cn1ncc(Cl)c1CC1c2ccccc2C(=O)N1Cc1c[nH]c(=S)s1 (centres unmarked) [Compound 631, 3-((4-chloro-1-methyl-1H-pyrazol-5-yl)methyl)-2-((2-thioxo-2,3-dihydrothiazol-5-yl)methyl)isoindolin-1-one]	> 1.5	–
≥ 5 µM	B (3≥B>2)	5 to 50 µM	–	–	CNCc1ccc2c(c1)C(=O)N(Cc1ccc3[nH]nnc3c1)C2Cc1c(Cl)cnn1C (centres unmarked) [Compound 422, 2-((1H-benzo[d][1,2,3]triazol-5-yl)methyl)-3-((4-chloro-1-methyl-1H-pyrazol-5-yl)methyl)-6-((methylamino)methyl)isoindolin-1-one]	1.2 to 1.5	–
0.5 to 5 µM	A (A>3)	< 0.5 µM	–	–	O=C1c2ccccc2C(Cc2ncccc2Br)N1CC1CCc2[nH]nnc2C1 (centres unmarked) [Compound 332, 3-((3-bromopyridin-2-yl)methyl)-2-((4,5,6,7-tetrahydro-1H-benzo[d][1,2,3]triazol-5-yl)methyl)isoindolin-1-one]	> 1.5	–
–	A (A>3)	–	0.5 to 5 µM	< 0.5 µM	Cc1cccc2c1C(Cc1c(Cl)ccnc1C#N)N(Cc1ccc3[nH]c(=O)oc3c1)C2=O (centres unmarked) [Compound 272, 4-chloro-3-((7-methyl-3-oxo-2-((2-oxo-2,3-dihydrobenzo[d]oxazol-6-yl)methyl)isoindolin-1-yl)methyl)picolinonitrile]	–	> 1.5
< 0.5 µM	A (A>3)	0.5 to 5 µM	–	–	O=C1c2ccccc2C(Cc2ncccc2Br)N1Cc1ccc2[nH]nnc2c1F (centres unmarked) [Compound 330, 3-((3-bromopyridin-2-yl)methyl)-2-((4-fluoro-1H-benzo[d][1,2,3]triazol-5-yl)methyl)isoindolin-1-one]	> 1.5	–
–	B (3≥B>2)	–	< 0.5 µM	< 0.5 µM	Cc1ccnc(C#N)c1CC1c2ccccc2C(=O)N1CC1CC2(CNC(=O)O2)C1 (centres unmarked) [Compound 308, 4-methyl-3-((3-oxo-2-((6-oxo-5-oxa-7-azaspiro[3.4]octan-2-yl)methyl)isoindolin-1-yl)methyl)picolinonitrile]	–	> 1.5
–	A (A>3)	–	≥ 5 µM	0.5 to 5 µM	O=c1c2ccccc2ccn1Cc1ccc(O)cc1 [Compound 1, 2-(4-hydroxybenzyl)isoquinolin-1(2H)-one]	–	> 1.5
–	B (3≥B>2)	–	≥ 5 µM	5 to 50 µM	C[C@@H]1c2ccccc2C(=O)N1Cc1ccc2[nH]c(=O)oc2c1 [Compound 55, (R)-6-((1-methyl-3-oxoisoindolin-2-yl)methyl)benzo[d]oxazol-2(3H)-one]	–	1.2 to 1.5
–	B (3≥B>2)	–	0.5 to 5 µM	0.5 to 5 µM	O=c1[nH]c2ccc(Cn3c(=O)c4ccccc4n3Cc3ccccc3C(F)(F)F)cc2o1 [Compound 141, 6-((3-oxo-1-(2-(trifluoromethyl)benzyl)-1,3-dihydro-2H-indazol-2-yl)methyl)benzo[d]oxazol-2(3H)-one]	–	> 1.5
–	B (3≥B>2)	–	≥ 5 µM	5 to 50 µM	O=C1c2ccccc2C(c2ccccc2)N1Cc1ccc2[nH]c(=O)oc2c1 (centres unmarked) [Compound 67, 6-((1-oxo-3-phenylisoindolin-2-yl)methyl)benzo[d]oxazol-2(3H)-one]	–	1.2 to 1.5
–	B (3≥B>2)	–	< 0.5 µM	< 0.5 µM	Cn1ncc(Cl)c1CC1c2cccc(F)c2C(=O)N1CC1CC2(CNC(=O)O2)C1 (centres unmarked) [Compound 309, 2-((1-((4-chloro-1-methyl-1H-pyrazol-5-yl)methyl)-4-fluoro-3-oxoisoindolin-2-yl)methyl)-5-oxa-7-azaspiro[3.4]octan-6-one]	–	> 1.5
–	C (2≥C)	–	≥ 5 µM	5 to 50 µM	Cn1c2ccccc2c(=O)n1Cc1ccc2[nH]nnc2c1 [Compound 301, 2-((1H-benzo[d][1,2,3]triazol-5-yl)methyl)-1-methyl-1,2-dihydro-3H-indazol-3-one]	–	1.2 to 1.5
–	C (2≥C)	–	0.5 to 5 µM	0.5 to 5 µM	O=C1c2ccc(Br)cc2CN1Cc1ccc2[nH]c(=O)oc2c1 [Compound 299, 6-((5-bromo-1-oxoisoindolin-2-yl)methyl)benzo[d]oxazol-2(3H)-one]	–	1.2 to 1.5
–	B (3≥B>2)	–	≥ 5 µM	5 to 50 µM	CC1c2ccccc2C(=O)N1Cc1ccc2[nH]nnc2c1 (centres unmarked) [Compound 44, 2-((1H-benzo[d][1,2,3]triazol-5-yl)methyl)-3-methylisoindolin-1-one]	–	1.2 to 1.5
